Data as given in patent publication US20160002204A1 (Board of Regents, The University of Texas System, priority 2014, published 2016).

How the values were obtained:
[1] = target: T1, GLS1 (purified recombinant human GAC) (Homo sapiens, UniProt O94925); assay: GLS1 enzymatic activity assay (dual-coupled, Amplex UltraRed/resorufin); format: biochemical
T1 sequence (O94925 55-598 isoform O94925-3 limits assumed): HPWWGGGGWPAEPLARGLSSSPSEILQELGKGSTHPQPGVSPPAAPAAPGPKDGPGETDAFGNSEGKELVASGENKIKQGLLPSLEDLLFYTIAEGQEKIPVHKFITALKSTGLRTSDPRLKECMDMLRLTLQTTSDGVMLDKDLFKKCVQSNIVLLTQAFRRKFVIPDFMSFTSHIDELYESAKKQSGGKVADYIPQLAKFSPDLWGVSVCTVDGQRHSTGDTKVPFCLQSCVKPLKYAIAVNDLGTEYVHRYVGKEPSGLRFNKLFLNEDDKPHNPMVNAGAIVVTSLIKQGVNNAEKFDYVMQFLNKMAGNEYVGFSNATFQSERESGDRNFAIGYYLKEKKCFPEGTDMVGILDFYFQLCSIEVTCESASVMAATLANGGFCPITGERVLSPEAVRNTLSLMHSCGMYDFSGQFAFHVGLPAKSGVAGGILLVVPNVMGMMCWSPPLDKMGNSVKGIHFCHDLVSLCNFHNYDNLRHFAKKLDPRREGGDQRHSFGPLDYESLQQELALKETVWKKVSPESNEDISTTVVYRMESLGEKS
How it was run: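 Recombinant human GAC (2 nM) preincubated with 50 mM potassium phosphate, then inhibitor (10 min each, RT); 1 mM glutamine, pH 7.4 Hepes buffer, 1% DMSO. Glutamate coupled via glutamate oxidase/HRP to resorufin (Ex 530/Em 590), kinetic or 20-min endpoint; IC50 by four-parameter logistic fit.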

A549 cells = assay: A549 proliferation (viability) assay, Cell Titer Fluor, 72 hours; format: cell-based; settings: Homo sapiens
How it was run: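 Seed A549 at 1000 cells/well and culture 24 h. Add compound (final DMSO 0.5%) and incubate 72 h at 37 °C. Add Cell Titer Fluor, mix 15 min, incubate 30 min, read fluorescence and fit EC50 by four-parameter logistic.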

| Compound | IC50 [1] [nM] | EC50 (A549 cells) [nM] |
| --- | --- | --- |
| CC(C)(C)OC(=O)N1CCN(CC(=O)Nc2ccn(CCC(F)Cn3cc(C(N)=O)nn3)c(=O)c2)CC1 (stereo not drawn) [Example 407, tert-butyl 4-[({1-[4-(4-carbamoyl-1H-1,2,3-triazol-1-yl)-3-fluorobutyl]-2-oxo-1,2-dihydropyridin-4-yl}carbamoyl)methyl]piperazine-1-carboxylate] | 500 to 5000 | > 5000 |
| CC(C)(C)OC(=O)c1cn(CC(F)CCn2ccc(CO)cc2=O)nn1 (stereo not drawn) [Example 408, tert-butyl 1-{2-fluoro-4-[4-(hydroxymethyl)-2-oxo-1,2-dihydropyridin-1-yl]butyl}-1H-1,2,3-triazole-4-carboxylate] | > 5000 | > 5000 |
| O=C(Nc1ccn(CCC(F)Cn2cc(C(=O)NCc3cc(C(F)(F)F)ccn3)nn2)c(=O)n1)OC1CCC1 (stereo not drawn) [Example 410, cyclobutyl N-(1-{3-fluoro-4-[4-({[4-(trifluoromethyl)pyridin-2-yl]methyl}carbamoyl)-1H-1,2,3-triazol-1-yl]butyl}-2-oxo-1,2-dihydropyrimidin-4-yl)carbamate] | 100 to 500 | 500 to 5000 |
| Cc1ccc(CNC(=O)c2cn(CC(F)CCn3ccc(NC(=O)C(=O)N4CCCC4)c(F)c3=O)nn2)cn1 (stereo not drawn) [Example 411, 1-(2-fluoro-4-{3-fluoro-2-oxo-4-[2-oxo-2-(pyrrolidin-1-yl)acetamido]-1,2-dihydropyridin-1-yl}butyl)-N-[(6-methylpyridin-3-yl)methyl]-1H-1,2,3-triazole-4-carboxamide] | 500 to 5000 | 500 to 5000 |
| Cc1ccc(CNC(=O)c2cn(CC(F)CCn3ccc(NC(=O)OC4CCC4)nc3=O)nn2)cn1 (stereo not drawn) [Example 413, cyclobutyl N-{1-[3-fluoro-4-(4-{[(6-methylpyridin-3-yl)methyl]carbamoyl}-1H-1,2,3-triazol-1-yl)butyl]-2-oxo-1,2-dihydropyrimidin-4-yl}carbamate] | 100 to 500 | 500 to 5000 |
| O=C(NCc1cccc(OC(F)(F)F)c1)c1cn(CC(F)CCn2ccc(COc3ccccc3)cc2=O)nn1 (stereo not drawn) [Example 414, 1-(2-fluoro-4-(2-oxo-4-(phenoxymethyl)pyridin-1(2H)-yl)butyl)-N-(3-(trifluoromethoxy)benzyl)-1H-1,2,3-triazole-4-carboxamide] | < 100 | 500 to 5000 |
| O=C(CN1CC2CC(C2)C1)Nc1ccn(CCC(F)Cn2cc(C(=O)NCc3cc(C(F)(F)F)ccn3)nn2)c(=O)c1F (stereo not drawn) [Example 415, 1-{4-[4-(2-{3-azabicyclo[3.1.1]heptan-3-yl}acetamido)-3-fluoro-2-oxo-1,2-dihydropyridin-1-yl]-2-fluorobutyl}-N-{[4-(trifluoromethyl)pyridin-2-yl]methyl}-1H-1,2,3-triazole-4-carboxamide] | < 100 | < 100 |
| N#CC1CCCN(C(=O)C(=O)Nc2ccn(CCC(F)Cn3cc(C(=O)NCc4cccc(OC(F)(F)F)c4)nn3)c(=O)c2F)C1 (stereo not drawn) [Example 420, 1-(4-{4-[2-(3-cyanopiperidin-1-yl)-2-oxoacetamido]-3-fluoro-2-oxo-1,2-dihydropyridin-1-yl}-2-fluorobutyl)-N-{[3-(trifluoromethoxy)phenyl]methyl}-1H-1,2,3-triazole-4-carboxamide] | < 100 | 500 to 5000 |
| O=C(Nc1ccn(CCC(F)Cn2cc(C(=O)NCc3cc(OC(F)(F)F)ccc3F)nn2)c(=O)c1F)C(=O)N1CCCCC1 (stereo not drawn) [Example 422, 11-(2-fluoro-4-(3-fluoro-2-oxo-4-(2-oxo-2-(piperidin-1-yl)acetamido)pyridin-1(2H)-yl)butyl)-N-(2-fluoro-5-(trifluoromethoxy)benzyl)-1H-1,2,3-triazole-4-carboxamide] | < 100 | < 100 |
| O=C(Nc1ccn(CCC(F)Cn2cc(C(=O)NCc3cccc(OC(F)(F)F)c3)nn2)c(=O)c1F)C(=O)N1CC2(CCC2)C1 (stereo not drawn) [Example 424, 1-{4-[4-(2-{2-azaspiro[3.3]heptan-2-yl}-2-oxoacetamido)-3-fluoro-2-oxo-1,2-dihydropyridin-1-yl]-2-fluorobutyl}-N-{[3-(trifluoromethoxy)phenyl]methyl}-1H-1,2,3-triazole-4-carboxamide] | < 100 | 100 to 500 |

The remaining lines, values ahead:

| IC50 [1] [nM] | EC50 (A549 cells) [nM] | Compound |
| --- | --- | --- |
| < 100 | < 100 | O=C(Cc1ccccc1)Nc1ccn(CCC(F)Cn2cc(C(=O)NCc3ccc(OC(F)(F)F)cn3)nn2)c(=O)c1F (stereo not drawn) [Example 409, 1-{2-fluoro-4-[3-fluoro-2-oxo-4-(2-phenylacetamido)-1,2-dihydropyridin-1-yl]butyl}-N-{[5-(trifluoromethoxy)pyridin-2-yl]methyl}-1H-1,2,3-triazole-4-carboxamide] |
| 100 to 500 | 500 to 5000 | Cc1ccc(CNC(=O)c2cn(CC(F)CCn3ccc(NC(=O)C(=O)N4CCCCC4)c(F)c3=O)nn2)cn1 (stereo not drawn) [Example 412, 1-(2-fluoro-4-{3-fluoro-2-oxo-4-[2-oxo-2-(piperidin-1-yl)acetamido]-1,2-dihydropyridin-1-yl}butyl)-N-[(6-methylpyridin-3-yl)methyl]-1H-1,2,3-triazole-4-carboxamide] |
| < 100 | < 100 | O=C(CN1CCC(F)(F)CC1)Nc1ccn(CCC(F)Cn2cc(C(=O)NCc3cc(C(F)(F)F)ccn3)nn2)c(=O)c1F (stereo not drawn) [Example 416, 1-(4-{4-[2-(4,4-difluoropiperidin-1-yl)acetamido]-3-fluoro-2-oxo-1,2-dihydropyridin-1-yl}-2-fluorobutyl)-N-{[4-(trifluoromethyl)pyridin-2-yl]methyl}-1H-1,2,3-triazole-4-carboxamide] |
| 100 to 500 | 500 to 5000 | O=C(Nc1ccn(CCC(F)Cn2cc(C(=O)NCc3cccc(OC(F)(F)F)c3)nn2)c(=O)c1F)C(=O)N1CCOCC1 (stereo not drawn) [Example 417, 1-(2-fluoro-4-{3-fluoro-4-[2-(morpholin-4-yl)-2-oxoacetamido]-2-oxo-1,2-dihydropyridin-1-yl}butyl)-N-{[3-(trifluoromethoxy)phenyl]methyl}-1H-1,2,3-triazole-4-carboxamide] |
| < 100 | < 100 | CC1CCCN(C(=O)C(=O)Nc2ccn(CCC(F)Cn3cc(C(=O)NCc4cccc(OC(F)(F)F)c4)nn3)c(=O)c2F)C1 (stereo not drawn) [Example 418, 1-(2-fluoro-4-{3-fluoro-4-[2-(3-methylpiperidin-1-yl)-2-oxoacetamido]-2-oxo-1,2-dihydropyridin-1-yl}butyl)-N-{[3-(trifluoromethoxy)phenyl]methyl}-1H-1,2,3-triazole-4-carboxamide] |
| < 100 | < 100 | O=C(Nc1ccn(CCC(F)Cn2cc(C(=O)NCc3cccc(OC(F)(F)F)c3)nn2)c(=O)c1F)C(=O)N1CCCC(C(F)(F)F)C1 (stereo not drawn) [Example 419, 1-[2-fluoro-4-(3-fluoro-2-oxo-4-{2-oxo-2-[3-(trifluoromethyl)piperidin-1-yl]acetamido}-1,2-dihydropyridin-1-yl)butyl]-N-{[3-(trifluoromethoxy)phenyl]methyl}-1H-1,2,3-triazole-4-carboxamide] |
| < 100 | < 100 | O=C(Nc1ccn(CCC(F)Cn2cc(C(=O)NCc3cccc(C(F)(F)F)c3)nn2)c(=O)c1F)C(=O)N1CCCCC1 (stereo not drawn) [Example 421, 1-(2-fluoro-4-{3-fluoro-2-oxo-4-[2-oxo-2-(piperidin-1-yl)acetamido]-1,2-dihydropyridin-1-yl}butyl)-N-{[3-(trifluoromethyl)phenyl]methyl}-1H-1,2,3-triazole-4-carboxamide] |
| < 100 | 100 to 500 | O=C(Nc1ccn(CCC(F)Cn2cc(C(=O)NCc3cc(C(F)(F)F)ccn3)nn2)c(=O)c1F)C(=O)N1CCCCC1 (stereo not drawn) [Example 423, 1-(2-fluoro-4-{3-fluoro-2-oxo-4-[2-oxo-2-(piperidin-1-yl)acetamido]-1,2-dihydropyridin-1-yl}butyl)-N-{[4-(trifluoromethyl)pyridin-2-yl]methyl}-1H-1,2,3-triazole-4-carboxamide] |
| < 100 | 100 to 500 | CCN(CC)C(=O)C(=O)Nc1ccn(CCC(F)Cn2cc(C(=O)NCc3cccc(OC(F)(F)F)c3)nn2)c(=O)c1F (stereo not drawn) [Example 425, N,N-diethyl-N′-(3-fluoro-1-{3-fluoro-4-[4-({[3-(trifluoro-methoxy)phenyl]methyl}carbamoyl)-1H-1,2,3-triazol-1-yl]butyl}-2-oxo-1,2-dihydropyridin-4-yl)ethanediamide] |
| < 100 | 500 to 5000 | O=C(Nc1ccn(CCC(F)Cn2cc(C(=O)NCc3cccc(OC(F)(F)F)c3)nn2)c(=O)c1F)C(=O)N1CCCC(O)C1 (stereo not drawn) [Example 426, 1-(2-fluoro-4-{3-fluoro-4-[2-(3-hydroxypiperidin-1-yl)-2-oxoacetamido]-2-oxo-1,2-dihydropyridin-1-yl}butyl)-N-{[3-(trifluoromethoxy)phenyl]methyl}-1H-1,2,3-triazole-4-carboxamide] |
| 500 to 5000 | 500 to 5000 | O=C(Nc1ccn(CCC(F)Cn2cc(C(=O)NCc3ccccn3)nn2)c(=O)c1F)C(=O)N1CCCCC1 (stereo not drawn) [Example 427, 1-(2-fluoro-4-{3-fluoro-2-oxo-4-[2-oxo-2-(piperidin-1-yl)acetamido]-1,2-dihydropyridin-1-yl}butyl)-N-(pyridin-2-ylmethyl)-1H-1,2,3-triazole-4-carboxamide] |
